From patent US8822383B2, “Germination-stimulant carbamate derivatives and process for preparation thereof” (National University Corporation KOBE UNIVERSITY, priority 2010, dated 2014)

Columns and labels:
[1] = system: Orobanche (Orobanche minor) seeds; assay: Test for Germination Stimulation Activity on Orobanche; type: in vivo; conditions: conditioned Orobanche minor seeds, 20 μl of 10 μM solution, 30° C., counted 4 days after; no compound: 0%
Experimental: (§1) First, 10 μmol of each test compound was weighed and dissolved in 2 ml of acetone. Each solution was diluted with distilled water to obtain a 10 μM solution. Next, a bottom of a petri dish was covered with a filter paper, and conditioned seeds of Orobanche (Orobanche minor) were placed on the filter paper, and then 20 μl of each diluted solution of test compound was applied to the seeds. For maintaining the humidity, a wet filter paper was prepared as long as water droplets were not dripped from the filter paper, and folded into four, and then placed onto the center of the petri dish. The petri dish was sealed with Parafilm®, and then covered with aluminum foil, and then incubated at 30° C. Four (4) days after, the number of germinated seeds was counted, and then a germination rate (%) was calculated by using the following formula: Germination rate(%)=(the number of germinated seeds/the total number of seeds)×100 The test compounds and the germination rates are shown in Tables 3 and 4. When no test compound was used in this test, the germination rate was 0%.

[2] = system: Striga (Striga hermonthica) seeds; assay: Test for Germination Stimulation Activity on Striga; type: in vivo; conditions: conditioned Striga hermonthica seeds, 20 μl of 10 μM solution, 30° C., counted 24 hours later; no compound: 0%
Experimental: as §1, with “of Striga (Striga hermonthica)” for “of Orobanche (Orobanche minor)”, “C. Twenty four (24) hours later,” for “C. Four (4) days after,”, “Tables 1” for “Tables 3”, “and 2.” for “and 4.”

Compound | Germination rate (%) [1] [%] | Germination rate (%) [2] [%]
CC1=CC(SC(=O)N(C)c2ccccc2)OC1=O (stereo not shown) [Compound No. 8, 4-methyl-5-oxo-2,5-dihydrofuran-2-yl methyl(phenyl)thiolcarbamate] | 5.4 | 12.0
CC1=CC(OC(=O)NCCc2cccc(C)c2C)OC1=O (stereo not shown) [Compound No. 9, 4-methyl-5-oxo-2,5-dihydrofuran-2-yl 2-(2,3-dimethylphenyl)ethylcarbamate] | 54.0 | 32.0
CC1=CC(OC(=O)Nc2ccccc2)OC1=O (stereo not shown) [Compound No. 1, 4-methyl-5-oxo-2,5-dihydrofuran-2-yl phenylcarbamate] | 38.8 | 2.6
CC1=CC(OC(=O)NCCc2ccc(C)c(C)c2)OC1=O (stereo not shown) [Compound No. 10, 4-methyl-5-oxo-2,5-dihydrofuran-2-yl 2-(3,4-dimethylphenyl)ethylcarbamate] | 48.0 | 43.0
CC1=CC(OC(=O)N(C)c2ccccc2)OC1=O (stereo not shown) [Compound No. 4, 4-methyl-5-oxo-2,5-dihydrofuran-2-yl methyl(phenyl)carbamate] | 66.3 | 53.5
CC1=CC(OC(=O)NCCc2ccc3c(c2)OCO3)OC1=O (stereo not shown) [Compound No. 11, 4-methyl-5-oxo-2,5-dihydrofuran-2-yl 2-(3,4-methylenedioxyphenyl)ethylcarbamate] | 47.0 | 37.0
CC1=CC(OC(=O)NCc2ccccc2)OC1=O (stereo not shown) [Compound No. 2, 4-methyl-5-oxo-2,5-dihydrofuran-2-yl benzylcarbamate] | 61.1 | 38.1
CC1=CC(OC(=O)N(C)CCc2ccccc2)OC1=O (stereo not shown) [Compound No. 6, 4-methyl-5-oxo-2,5-dihydrofuran-2-yl 2-phenethyl(methyl)carbamate] | 30.4 | 28.0
CC1=CC(SC(=S)N(C)c2ccccc2)OC1=O (stereo not shown) [Compound No. 7, 4-methyl-5-oxo-2,5-dihydrofuran-2-yl methyl(phenyl)dithiocarbamate] | 15.3 | 32.6
CC1=CC(OC(=O)NCCc2ccccc2)OC1=O (stereo not shown) [Compound No. 3, 4-methyl-5-oxo-2,5-dihydrofuran-2-yl phenethylcarbamate] | 66.9 | 54.0
CC1=CC(OC(=O)N(C)Cc2ccccc2)OC1=O (stereo not shown) [Compound No. 5, 4-methyl-5-oxo-2,5-dihydrofuran-2-yl benzyl(methyl)carbamate] | 75.2 | 48.4
